Source: the NIST ThermoML archive (doi:10.1016/j.tca.2012.05.036)

Experiments:
[1] = refractive index (Na D-line) (dimensionless); xn = mol fraction of the nth substance listed; settings: 101 kPa, Liquid, Standard Abbe refractometry
[2] = relative permittivity at zero frequency (dimensionless); xn = mol fraction of the nth substance listed; settings: 101 kPa, Liquid, Parallel plate capacitor

CCCCCO [pentan-1-ol] + CCCCCCCC
Settings	refractive index, 293.15 K	refractive index, 298.15 K	refractive index, 303.15 K	relative permittivity at zero frequency, 288.15 K	relative permittivity at zero frequency, 293.15 K	relative permittivity at zero frequency, 298.15 K	relative permittivity at zero frequency, 303.15 K	relative permittivity at zero frequency, 308.15 K
[1], x1 = 0.1008	1.3981	1.3965	1.3937	–	–	–	–	–
[1], x1 = 0.2034	1.3988	1.3973	1.3946	–	–	–	–	–
[1], x1 = 0.3004	1.3997	1.3982	1.3955	–	–	–	–	–
[1], x1 = 0.3808	1.4005	1.3991	1.3964	–	–	–	–	–
[1], x1 = 0.4885	1.4019	1.4004	1.3979	–	–	–	–	–
[1], x1 = 0.593	1.4033	1.4019	1.3993	–	–	–	–	–
[1], x1 = 0.6992	1.4047	1.4034	1.4008	–	–	–	–	–
[1], x1 = 0.7922	1.4063	1.405	1.4026	–	–	–	–	–
[1], x1 = 0.8967	1.4082	1.407	1.4046	–	–	–	–	–
[2], x1 = 0.1008	–	–	–	2.104	2.1	2.096	2.092	2.088
[2], x1 = 0.2034	–	–	–	2.331	2.321	2.312	2.304	2.297
[2], x1 = 0.3004	–	–	–	2.766	2.731	2.699	2.669	2.643
[2], x1 = 0.3808	–	–	–	3.405	3.32	3.243	3.173	3.111
[2], x1 = 0.4885	–	–	–	4.798	4.601	4.421	4.257	4.109
[2], x1 = 0.593	–	–	–	6.675	6.358	6.053	5.774	5.516
[2], x1 = 0.6992	–	–	–	8.743	8.332	7.936	7.559	7.204
[2], x1 = 0.7922	–	–	–	11.143	10.654	10.175	9.712	9.267
[2], x1 = 0.8967	–	–	–	13.734	13.179	12.634	12.103	11.585
